These results are taken from PubChem BioAssay AID624404 (Broad Institute, 2012).

Records with an inconclusive call do not appear.

The experiment deals with D54 LucT luciferase reporter counterscreen, luminescence, 24 h. Briefly: reporter signal increase, D54 LucT cells – cell-based, luminescence, cherry pick, counter-screen for N-linked glycosylation inhibitor project, dose response (AID 624404). On the technique in general: The purpose of a counterscreen is to sort out artefacts and off-target activity.
In the case of `O=C(N/N=C/c1ccc(Cl)cc1)c1sccc1OCc1ccc(F)cc1`, the AC35 was 514 nM.

Consider `O=C(COc1ccccc1CNCc1ccccc1)Nc1ccccc1`, for which the AC35 was 890 nM.

As for `COc1ccc2c(c1)C(=O)N1[C@H]3c4cc(C)ccc4OC[C@@H]3[C@H](c3ccccc3)[C@]1(C)C(=O)N2`, the AC35 was 933 nM.

For the compound `COc1cc(C(=O)Nc2cc3c(cc2N2CCCCC2)n(C)c(=O)n3C)cc(OC)c1OC`, the AC35 is 96.4 nM.

Consider `COc1ccc(C2(CNC(=O)c3cc(OC)c(OC)c(OC)c3)CCCC2)cc1OC`, for which the AC35 was 3410 nM.

In the case of `CCOC(=O)c1c(C)nc2c(c1-c1cc(OC)c(OC)c(OC)c1)C(=O)c1ccccc1-2`, the AC35 was 514 nM.

Turning to `CCOC(=O)c1[nH]c(C)c(C(=O)Nc2cc(Cl)ccc2C)c1C`, the AC35 was 2240 nM.

As for `Cc1ccnc(NC(=O)CN2C(=O)NC(C)(c3ccc4ccccc4c3)C2=O)c1` (stereo not drawn), the AC35 is 362 nM.

Turning to `Cc1c2cnccc2c(C)c2c1oc1ccccc12`, the AC35 is 3320 nM.

For the compound `CSc1nnc(-c2sccc2OCc2ccccc2)n1C`, the AC35 is 929 nM.

For the compound `COc1ccc(C(=O)c2ccc(OC)c(N)c2)cc1N`, the AC35 is 827 nM.

On to `Cn1c(=O)c2cc(NC(=O)CCc3ccccc3)ccc2n1-c1ccccc1F`, for which the AC35 is 2980 nM.

Consider `O=C(NCCCn1ccnc1)c1cc(-c2cccs2)on1`, for which the AC35 is 2020 nM.

On to `O=C(N/N=C/c1ccco1)c1cc(-c2ccncc2)nc2ccccc12`, for which the AC35 was 7160 nM.

`Cc1nc(-c2ccccc2)sc1-c1nc(-c2ccncc2)ncc1S(=O)(=O)c1ccccc1`: the AC35 was 411 nM.

`CCOC(=O)c1cnc2c(ccc3ccccc32)c1NCCCN(C)C`: the AC35 was 515 nM.

`COc1cc(CN2CCc3ccccc3C2)ccc1O`: the AC35 is 2000 nM.

Take `COc1ccc(NC(=O)C2Cc3c(-c4cccc(C(C)=O)c4)ccnc3O2)cc1` (stereo not drawn): the AC35 is 90.9 nM.

Regarding `C(=N\Nc1nc2ccccc2[nH]1)/c1c[nH]c2ccccc12`, the AC35 was 718 nM.

Consider `COc1ccc2c(c1)[C@H]1[C@H](CO2)[C@H](c2ccccc2)[C@]2(C)C(=O)Nc3cc(F)ccc3C(=O)N12`, for which the AC35 was 326 nM.

As to `CNC(=O)c1cccn(Cc2cccc(C(F)(F)F)c2)c1=O`, the AC35 was 231 nM.

As to `CCc1nn2c(NCCCO)cc(C)nc2c1-c1ccc(F)cc1`, the AC35 is 184 nM.

Consider `Cc1ccc(S(=O)(=O)Nc2ccc3c(c2)n(C)c(=O)n3C)cc1`, for which the AC35 was 694 nM.

Take `COc1ccc(NC(=O)c2cc3c(=O)n(C)c4ccccc4c3n2C)cc1OC`: the AC35 was 4000 nM.

In the case of `Cc1cc(NCCN2CCOCC2)c2ccc3ccccc3c2n1`, the AC35 is 17.8 nM.

For `CC(=O)c1c(C)[nH]c(C(=O)Nc2cccc(S(=O)(=O)N3CCCC3)c2)c1C`, the AC35 was 3950 nM.

For `COc1ccc(-n2c(=S)[nH]c3cc(C(=O)NC4CCCCC4)ccc3c2=O)c(OC)c1`, the AC35 is 414 nM.

With `O=C1COc2ccc(C(=O)/C=C/c3ccccc3)cc2N1`, the AC35 was 641 nM.

Regarding `CCN(CC)S(=O)(=O)c1ccc(N2CCOCC2)c(NC(=O)c2[nH]c(C)c(C(C)=O)c2C)c1`, the AC35 was 330 nM.

With `Cc1nn(-c2ccccc2)c2c1CC(=O)Nc1ccccc1-2`, the AC35 is 3160 nM.

With `Oc1ccc(Nc2nc(N3CCCC3)c3ccccc3n2)cc1`, the AC35 was 150 nM.

In the case of `NC(=O)c1cccc(-c2coc3c(C(=O)NCc4ccccc4)cccc23)c1`, the AC35 was 3070 nM.

For the compound `Cn1c(=O)cc(OCCCC(=O)NC2CCCC2)c2ccccc21`, the AC35 is 3240 nM.

`O=C(N/N=C/c1ccccc1)c1sccc1OCc1ccc(F)cc1`: the AC35 is 3060 nM.

For `Cc1ccc2nc(-c3ccncc3)cc(C(=O)Nc3ccncc3)c2c1`, the AC35 is 64.6 nM.

As for `COc1ccc(-c2oc3cc(O)c(OC)c(O)c3c(=O)c2OC)cc1O`, the AC35 is 909 nM.

For the compound `COc1ccc(/C=C/C(=O)Oc2cccc(/C=N/NC(=O)COc3c(C)cccc3C)c2)cc1`, the AC35 was 3250 nM.

Turning to `COc1ccc(/C=N/NC(=O)c2sccc2OCc2ccc(F)cc2)cc1OC`, the AC35 is 952 nM.

`Oc1ccc(C2=NNC(=NCc3ccc4c(c3)OCO4)SC2)c(O)c1`: the AC35 was 3120 nM.

Regarding `COc1ccc(C2NC(=S)NC3=C2CCCC3=C2SCCS2)cc1` (stereo not drawn), the AC35 is 186 nM.

Consider `COc1ccccc1C(=O)Nc1ccc2c(c1)nc(CCNC(=O)c1ccco1)n2C`, for which the AC35 is 45.3 nM.

Take `O=C1Cc2c([nH]c3ccc([N+](=O)[O-])cc23)-c2ccccc2N1`: the AC35 was 894 nM.

For the compound `OC1CCCN(Cc2ccc3ccc4cccc5ccc2c3c45)C1` (stereo not drawn), the AC35 is 890 nM.

Turning to `COc1ccc2c(c1)OC[C@H]1[C@H]2N2C(=O)c3cc(Br)ccc3NC(=O)[C@@]2(C)[C@H]1c1ccccc1`, the AC35 was 944 nM.

With `O=C(COC(=O)c1cccc(Br)c1)Nc1cccc2c1C(=O)c1ccccc1C2=O`, the AC35 is 1150 nM.

In the case of `CCOC(=O)[C@H]1[C@H]2COc3ccc(OC)cc3[C@@H]2N2C(=O)c3cc(OC)c(OC)cc3NC(=O)[C@@]12C`, the AC35 is 3030 nM.

With `O=C(Nc1ccccc1-c1ccccc1)C1CCCC1`, the AC35 is 1220 nM.

In the case of `Cc1ccc(C(=O)NC(=C(Cl)Cl)S(=O)(=O)c2ccc(Cl)cc2)cc1`, the AC35 was 12700 nM.

For the compound `COc1cccc(/C=C2\SC(=S)N(CCC(=O)N3CCCCC3)C2=O)c1`, the AC35 is 4370 nM.

For `Cc1ccnc2nc(C(=O)Nc3cc(Cl)ccc3N3CCOCC3)nn12`, the AC35 is 155 nM.

`O=C(C[C@H]1C/C=C\C[C@H](Cc2ccc(F)cc2)C(=O)O[C@@H](c2ccccc2)CNC1=O)N[C@@H](CO)Cc1ccccc1`: the AC35 was 575 nM.

For the compound `Cc1ccc(C(=O)Nc2ccc(C(=O)/C=C/c3cccs3)cc2)cc1`, the AC35 is 709 nM.

As for `CS(=O)(=O)c1cccc(C(=O)Nc2ccc(-c3nc4ccccc4[nH]3)cc2)c1`, the AC35 was 3750 nM.

Take `COc1ccc([C@@H]2[C@@H]3C(=O)N(C(C)(C)C)C(=O)[C@@H]3[C@]3(Cc4ccccc4)C(=O)N(c4cccc(Cl)c4)C(=O)N23)cc1`: the AC35 was 2180 nM.

As to `NC(=O)c1cccc(-c2ccnc3c2CC(C(=O)NCc2ccccc2)O3)c1` (stereo not drawn), the AC35 was 283 nM.

For `Cc1ccc(SCC(=O)Nc2ccc(-c3nc4ccccc4[nH]3)cc2)cc1`, the AC35 was 337 nM.

On to `O=C(C[C@@H]1C/C=C/CC[C@H](Cc2ccc(F)cc2)C(=O)OC[C@@H](Cc2ccccc2)NC1=O)N[C@H](CO)Cc1ccccc1`, for which the AC35 is 4640 nM.

Turning to `COc1ccc(CC(=O)Nc2ccc(-c3ccc4nnc(C)n4n3)cc2)cc1OC`, the AC35 is 1800 nM.

As for `C=CCn1c(O)c(/C=C2/C=CC=N2)c(=O)[nH]c1=O`, the AC35 is 14300 nM.

Regarding `CC(CC(=O)Nc1ccc2c(c1)c(=O)n(C)n2-c1cccs1)c1ccccc1` (stereo not drawn), the AC35 was 7420 nM.

On to `C(=C\c1nccc2c1[nH]c1ccccc12)/c1ccccc1`, for which the AC35 is 7.01 nM.

`Cc1ccc(C(=O)NCc2nnc(SCC(=O)NC(C)c3ccccc3)n2C)cc1` (stereo not drawn): the AC35 is 2430 nM.

Consider `COc1ccc(OC)c(Nc2ncnc3c2cnn3-c2cccc(C)c2)c1`, for which the AC35 is 4590 nM.

In the case of `CC(C)(C)S(=O)N1Cc2cc(C(=O)NCC(F)(F)F)nc(-c3cccc(-c4cccc(F)c4)c3)c2[C@@H]1CCO` (stereo partly drawn), the AC35 is 1780 nM.

In the case of `Nc1ccc(C(=O)Nc2ccccc2N)cc1`, the AC35 is 744 nM.

On to `CCOc1nc(N=C(N)N)nc2c(C)cccc12`, for which the AC35 is 603 nM.

Turning to `Cc1nc(Nc2nc(-c3ccccc3)cc(=O)[nH]2)nc2ccccc12`, the AC35 was 4910 nM.

Regarding `O=c1cc(-c2ccccc2)nc2cc(-c3ccc(F)cc3)[nH]n12`, the AC35 was 2190 nM.

As for `OCCCN=c1cc(-c2ccccc2)oc2ccc(Cl)cc12`, the AC35 was 971 nM.

As for `CC(NC(=O)c1ccc2ccccc2n1)c1ccc(S(N)(=O)=O)cc1` (stereo not drawn), the AC35 was 977 nM.

`C#CCCOC(=O)N1C2=NC(C(=O)OC)=C(C(=O)OC)[C@@H]3N(C)c4ccccc4[C@]23C[C@H]1C(=O)OC`: the AC35 is 934 nM.

Regarding `COc1cc(/C=N/n2cnc3scc(-c4cccs4)c3c2=O)cc(OC)c1OC`, the AC35 is 177 nM.

Regarding `N#CC1=C(N)Oc2c(c(=O)sc3ccccc23)C1c1cccnc1` (stereo not drawn), the AC35 is 1260 nM.

For the compound `O=S(=O)([N-]c1nc2ccccc2nc1-n1cc[n+](Cc2ccccc2)c1)c1ccc(Cl)cc1`, the AC35 is 89.8 nM.

Turning to `CC(C)(C)S(=O)(=O)N1C[C@@H]2CC/C=C\C/C(c3ccccc3)=C\2[C@H]1CCO`, the AC35 is 645 nM.

For `Cc1ccc(N2C(=O)Nc3ccccc3C2(O)C(=O)N2CCN(c3ccccn3)CC2)cc1C` (stereo not drawn), the AC35 is 375 nM.

On to `C[C@@]12C(=O)Nc3cc(F)c(F)cc3C(=O)N1[C@H]1c3ccccc3OC[C@@H]1[C@@H]2c1ccccc1`, for which the AC35 was 746 nM.

In the case of `Cn1cccc1/C=C1\SC(=Nc2cccc(O)c2)NC1=O`, the AC35 was 1760 nM.

On to `CCc1ccc(N2C(=O)Nc3ccccc3C2(O)C(=O)N2CCN(c3ccccn3)CC2)cc1` (stereo not drawn), for which the AC35 was 493 nM.

`OCCCCCN=c1cc(-c2ccccc2)oc2ccc(Cl)cc12`: the AC35 is 2190 nM.

Consider `CC1CN(C(=O)c2cc(-c3ccc(Cl)s3)nc3ccccc23)CC(C)O1` (stereo not drawn), for which the AC35 is 3320 nM.

In the case of `COc1cc(C(=O)N/N=C(\C)c2ccc3c(c2)OCO3)cc(OC)c1OC`, the AC35 was 92.4 nM.

`Cn1c(=O)[nH]c(=O)c2c1nc(SCC(N)=O)n2Cc1cccc(Br)c1`: the AC35 was 421 nM.

As to `c1ccc(CNc2ncnc3c2cnn3-c2ccccc2)cc1`, the AC35 is 719 nM.

`COc1cc(OC)cc(C(=O)NCC(=O)Nc2ccc(-c3ccccc3)cc2)c1`: the AC35 is 501 nM.

As to `CC(CCc1ccco1)NC(=O)CCc1nnc2ccc(NCc3ccc(Cl)cc3)nn12` (stereo not drawn), the AC35 is 1580 nM.

Turning to `COCCNC(=S)N1CCc2cc(OC)c(OC)cc2C1c1cccs1` (stereo not drawn), the AC35 was 352 nM.

With `O=C(/C(=C\c1ccccc1)c1nc2ccccc2[nH]1)c1ccc(Cl)cc1`, the AC35 is 306 nM.

`Cn1nc(C(=O)Nc2cccc(S(=O)(=O)N3CCCCC3)c2)c2ccccc2c1=O`: the AC35 was 50.3 nM.

On to `O=C(CCl)Nc1cccc(S(=O)(=O)NC2=NCCC2)c1`, for which the AC35 was 1620 nM.

In the case of `Cc1ccc2c(c1)cc(CN(C(=O)N1CCOCC1)C1CCCC1)c1nnnn12`, the AC35 was 2460 nM.

Turning to `CC[C@H](C)C(=O)O[C@H]1C[C@@H](C)C=C2C=C[C@H](C)[C@H](CC[C@@H]3C[C@@H](O)CC(=O)O3)[C@H]21`, the AC35 is 695 nM.

`O=C(/C=C/c1ccccc1Cl)c1ccc(O)cc1`: the AC35 is 201 nM.
